Our source for the melting point values is a melting point compilation (Tetko et al.; mined from patent text by program, amines drawn as free bases though some values may be those of a salt).

Where only a bound is given, the exact number is not on record here.

With `Cc1nc(C)c(C(C)(O)c2ccccc2)s1` (stereo not drawn), the melting point (in general, the temperature, or range, at which the solid turns liquid) fell in the range of 131 to 132 °C. For `CCOc1ccccc1C1=NN(C(=O)c2cccnc2)CC1` the value was 155 to 157 °C; for `CC(NC(=O)C(O)c1cc(F)cc(F)c1)C(=O)NC1C(=O)N(C)c2ccccc2N(c2ccccc2)C1=O` (stereo not drawn), 212 to 213 °C; for `CC(=O)Nc1nc(CCc2ccc(CC(=O)NC(=N)N)s2)cs1`, 188 to 190 °C. Take `CN1C(=O)C(Cc2ccccc2)(c2ccccc2O)c2ccccc21` (stereo not drawn): the melting point lay in the range of 188 to 190 °C.

As for `O=c1[nH]c2ncncc2s1`, the melting point was > 108 °C.

Compound `CCCN(CCC)S(=O)(=O)c1cc(-c2csc(=Nc3cccc(C)c3C)n2C)ccc1Cl` returned a melting point of 184 to 187 °C. As for `O=C(NC=C(c1ccccc1)c1ccccc1)c1sc2ccc(F)cc2c1O`, the figure is 186 to 189 °C. Turning to `O=C(O)[C@H]1NCC[C@@H](O)[C@@H]1O`, the melting point was in the range of 253 to 260 °C.

The compound `O=S(CBr)c1ccc(Cl)cc1` (stereo not drawn) returned a melting point of 100 °C.

As for `Cc1nc(-n2cnn(CC3CC3)c2=O)sc1C(=O)NCc1ccccn1`, the melting point fell in the range of 160 to 161 °C. As for `COc1cccc(C2CCC(O)O2)c1` (stereo not drawn), the figure is 76.5 to 78 °C.

For the compound `O=Cc1cc2n(n1)CCOC2=O`, the melting point lay in the range of 135 to 136 °C.

For `Cc1ccc(N2C(=O)C(O)=C(C(=O)c3ccc(C(C)C)cc3)C2c2ccc(OC(F)(F)F)cc2)nn1` (stereo not drawn), the melting point turned out to be 221 °C. Regarding `Clc1cccc(N2CCN(CCCOc3ccc4scnc4c3)CC2)c1Cl`, the melting point lay in the range of 127 to 129 °C.

As to `Cc1cc(C(=O)Nc2ccn3cc(-c4ccccc4)nc3n2)ccn1`, the melting point is 255 to 257 °C.

`N#Cc1nn(-c2c(Cl)cc(-c3ccc(C(F)(F)F)cc3)cc2Cl)c(N)c1Br` had a melting point of 178 to 180 °C. As to `CCOC(=O)ON(C(=O)NC)c1ccc(Cl)c(Cl)c1`, the melting point was in the range of 97 to 98 °C. `CCCC(C#N)(Cn1cncn1)c1ccc(F)cc1` (stereo not drawn) yielded a melting point of 75 to 76 °C. `Cc1cc(Oc2ccc(C#N)cc2C(F)(F)F)n[nH]1` registered a melting point of 123 to 125 °C. As to `COc1cc2ccccc2[nH]c1=O`, the melting point was in the range of 188 to 189 °C.

`O=CN1CCCN(Cc2ccc(Cl)cc2)C1=C[N+](=O)[O-]` displayed a melting point of 131 to 133 °C.

`CCCCc1cc(OCCc2ccc(C(=O)O)cc2)c2ccccc2n1` registered a melting point of 205 °C.

Compound `COc1cc(/C=C/c2ccc(N(C)C)cc2)cc(OC)c1OC` yielded a melting point of 114 to 115 °C. As for `O=C1c2ccccc2C(=O)N1c1cccc(S(F)(F)(F)(F)F)c1`, the figure is 188 to 190 °C; as for `CCCCCCCCCCCCCCCC(=O)Nc1cc([N+](=O)[O-])ccc1O`, 146 to 148 °C. For `CCc1ncc2n1-c1ccc(Cl)cc1C(c1ccccc1F)=NC2` the value was 140 to 143 °C; for `CCOC(=O)C1C=Nc2c(ccc(F)c2F)C1=O` (stereo not drawn), 270 °C. `CC(C)(Cn1c(CO)nc2c(N)nc3ccccc3c21)NC(=O)C1CCCCC1` registered a melting point of 248 to 250 °C. For `O=C1C(=O)c2ccccc2C2=C1SCC1(CCN(CCCOc3ccc(Cl)cc3)CC1)O2` the value was 130 to 132 °C; for `COc1cc(S(=O)(=O)c2ccncc2)ccc1[N+](=O)[O-]`, 123 to 124 °C; for `CCCc1ccnc(C(=O)O)c1N`, 185 to 188 °C. For `Cn1c(-c2ccccc2)nc(CN2CCN(c3ccc(O)cc3)CC2)cc1=O` the value was 206 to 207 °C. In the case of `C=CCNC(=O)n1nc(O)cc1C`, the melting point lay in the range of 80 to 83 °C. As for `N#Cc1cc2c([nH]c1=O)CCc1ccccc1-2`, the figure is 301 to 303 °C; as for `CCN(CC)c1ccc(CNc2cc(C(=O)Nc3ccccc3)ccc2OC)cc1`, 180 to 181 °C. Regarding `CSc1ncc(O)c(O)n1`, the melting point is 213 to 215 °C. `O=C(/C=C/c1ccc(C(F)(F)F)cc1)Nc1ccc2c(c1)NCC(CO)C2` (stereo not drawn) showed a melting point of 176 to 179 °C. As for `Oc1ccccc1-c1cc(-c2ccc3c(c2)OCO3)cc(-c2ccc3ccccc3c2)n1`, the figure is 195 to 196 °C. In the case of `Nc1cc(Cl)cc(Cl)c1I`, the melting point is 61 to 63 °C. As for `CCOC(=O)c1occ(-c2ccccc2)c(=O)c1Br`, the figure is 134 °C.

In the case of `O=C(O)c1nnn(Cc2ccccc2)n1`, the melting point fell in the range of 127 to 130 °C. As for `CN(C)CCCNC(=O)c1ccc(-c2ccc3nnn(Cc4ccc5ncccc5c4)c3n2)cc1F`, the melting point is 148 to 150 °C. For `CC(NC(=O)C1(C(F)(F)F)CC(C)(Cl)C1)c1ccc(Cl)cc1` (stereo not drawn) the value was 129 to 130 °C. With `N#Cc1cnn(-c2ccc(Cl)nn2)c1N`, the melting point lay within 250 to 252 °C.

For `Oc1ccc(N2CCN(c3ccncc3)CC2)cc1`, the melting point was 288 to 290 °C. Take `COCc1nc(NC(=O)NS(=O)(=O)c2ccccc2C(=O)OC)nc(SC)n1`: the melting point was 147 to 149 °C. For `CSc1nn(C(=O)NC2CCCCC2)c(=O)n1C`, the melting point was determined as 136 °C. Take `CCC(=O)OC1CCC2C3CCC4=CC(=O)CCC4(CO)C3CCC12C` (stereo not drawn): the melting point is 160 to 162 °C. Turning to `c1ccc(Sc2ccc(Sc3ccccc3)s2)cc1`, the melting point lay in the range of 47 to 48 °C. For the compound `CCOP(=O)(CCC(OC)(C(=O)c1ccccc1)c1ccccc1)OCC` (stereo not drawn), the melting point fell in the range of 60 to 62 °C.

`CC1(C)Oc2ccc(S(=O)(=O)C(F)(F)F)cc2[C@@H](n2ccccc2=O)[C@@H]1O` (relative stereo) returned a melting point of 219 to 220 °C.

The compound `C[C@@H](SCCCO)[C@](O)(Cn1cncn1)c1ccc(F)cc1F` (relative stereo) gave a melting point of 119 to 120 °C.

With `CC(C)(C)c1cc(C(=O)c2cc3c(cc2O)CCC3)cc(C(C)(C)C)c1O`, the melting point was in the range of 155 to 156 °C. For `CN1C(=O)C(C(=O)NCCCCCC(=O)O)S(=O)(=O)c2ccccc21` (stereo not drawn) the value was 132 to 134 °C; for `O=C(O)Cc1cc([N+](=O)[O-])ccc1Sc1cccc(Br)c1`, 123 to 125 °C. For `COc1ccc(-c2c3c(cc4ccc(O)cc24)-c2ccc(O)cc2CO3)cc1` the value was 200 to 203 °C; for `CNC(=O)Oc1ccccc1`, 84 to 85 °C; for `COc1nc2ccccc2nc1NC(=O)N1CCN(c2cc(C)cc(C)c2)CC1`, 155 to 157 °C. As for `C[C@](O)(COc1ccc(C#N)c(F)c1)C(=O)Nc1ccc(C#N)c(C(F)(F)F)c1`, the figure is 124 to 125 °C; as for `O=C(OCc1ccccc1)c1cc(OCc2ccccc2)c(OCc2ccccc2)cn1`, 117 °C. With `Cn1ncc(/C=C/C(=O)Nc2ccc(C(=O)O)cc2)c1-c1ccc(F)cc1`, the melting point fell in the range of 291 to 292 °C.

`CN1C(=O)C2(COc3cc4c(cc32)OCCO4)c2c(O)cccc21` (stereo not drawn): the melting point is > 250 °C. As for `O=C1C2=C(SCCN2)C2CSCCN12` (stereo not drawn), the figure is 142 °C; as for `O=[N+]([O-])c1ccc(Oc2ccc(C(F)(F)F)cc2Cl)nc1`, 69 to 72 °C; as for `CC(C)S(=O)(=O)C1C(=O)N(Cc2ccccc2F)C(=O)c2ccccc21` (stereo not drawn), 174 to 181 °C. `CC(C)Sc1sc(-c2cc[nH]n2)c2c1C(=O)CC(C)(C)C2` showed a melting point of 195 to 198 °C. Compound `C=CCc1cc(OCC)c2c(c1OC)S(=O)(=O)N(Cc1ccccc1)C2=O` displayed a melting point of 92 to 94 °C. With `Oc1cc(I)c(I)cc1O`, the melting point was determined as 116 °C. In turn, `C#CC(C)(C)OC(=O)Nc1ccc(-c2ncn(-c3ccc(OC(F)(F)F)cc3)n2)cc1` came in with a melting point of 164 to 165 °C.

`CCc1cccc2c1C(=O)C(=S)N2` came in with a melting point of 171 to 172 °C. Take `CCOC(=O)c1ccc(CCNc2ncnc(CC)c2Cl)cc1`: the melting point lay within 134 to 135 °C.

`CC[Si](CC)(CC)OC1CC2=CCC3C4CCC(=O)C4(C)CCC3C2(C)C(O[Si](CC)(CC)CC)C1` (stereo not drawn) showed a melting point of 99 to 100 °C. As to `N#CSCOc1c(Cl)cc(Cl)c(Cl)c1Cl`, the melting point lay in the range of 51 to 53 °C. Take `COC(=O)CN(Cc1ccccc1N)S(=O)(=O)c1ccc(OC)cc1`: the melting point lay within 100 to 102 °C. `Cc1cc(SCC(CS(=O)(=O)c2ccc(-c3ccc(Cl)cc3)cc2)C(=O)O)nc(C)n1` (stereo not drawn): the melting point is 170 to 172 °C.

`Oc1c(Br)cc(Br)c2c(Cl)ncnc12` registered a melting point of 198 to 199 °C. For `O=S(=O)(Cl)c1ccc(-c2cccs2)s1`, the melting point lay within 63 to 64 °C. For `COc1ccc(Cl)cc1C(=O)NCCc1ccc(Sc2ccccc2)c(S(N)(=O)=O)c1` the value was 178 °C.

`COc1ccc(CONS(C)(=O)=O)cc1` yielded a melting point of 114 to 116 °C.

Compound `Cc1nc(C)c(-c2ccnc(Nc3ccc(Cl)c(CO)c3)n2)s1` returned a melting point of 245 to 246 °C. As for `CC(CN1CCC(Nn2cccc2)CC1)c1ccccc1` (stereo not drawn), the figure is 72 to 74 °C. For `COc1cc(C=O)cc(OC)c1OCc1ccc([N+](=O)[O-])cc1` the value was 148 to 149 °C; for `COCCn1cc2c(C3C(=O)Nc4ccc(Br)cc43)nc(NCCCN(C)C)nc2n1` (stereo not drawn), 297 to 298 °C.

As for `O=C(O)c1cn(C2CC2)c2cc(N3CCNCC3)c(F)c(F)c2c1=O`, the melting point was > 300 °C. Take `C[C@@H](Nc1ncnc2[nH]c(-c3ccc(CN4CCN(C)CC4)cc3)cc12)c1ccccc1`: the melting point lay within 248 to 250 °C. As for `CCOc1ccc2[nH]c(=O)n(-c3ccc(C(C)C)cc3)c2c1`, the figure is 100 °C; as for `CC(C)(Oc1ccc2c(-c3ccc(Cl)cc3)noc2c1)C(=O)O`, 132 °C. For `N#Cc1ccc(C(O)CCN2CC=C(c3ccc(Cl)cc3)CC2)cc1` (stereo not drawn) the value was 117 to 118 °C. For `Cc1oc(-c2ccc3ccccc3c2)nc1COc1ccc(CCCCCOS(C)(=O)=O)cc1` the value was 132 to 133 °C; for `O=[N+]([O-])c1cccc(C(O)CN2CCNC2=S)c1` (stereo not drawn), 163 °C. In turn, `COc1cn(-c2ccc(N3CCOCC3=O)cc2F)nc(-c2ccnn2-c2ccccc2)c1=O` yielded a melting point of 193 to 195 °C. As for `FC(F)(F)c1ccccc1-c1n[nH]c(-c2ccccc2C(F)(F)F)n1`, the figure is 190 to 192 °C.
